# Experimental data as given in patent publication US10670605B2, “Cysteine reactive probes and uses thereof” (The Scripps Research Institute, priority 2015, dated 2020).
# Where “and” joins values, the source holds several entries; their conditions need not be identical. Equal values may be shown once.
# How the values were obtained:
# [1] = biological target: T1, cysteines in MDA-MB-231 and Ramos cells (Homo sapiens, UniProt P57764); experiment: Competitive isoTOP-ABPP in situ (fragment-treated cells); format: cell-based; conditions: 200 μM, insitu
# T1 sequence (P57764 1-484): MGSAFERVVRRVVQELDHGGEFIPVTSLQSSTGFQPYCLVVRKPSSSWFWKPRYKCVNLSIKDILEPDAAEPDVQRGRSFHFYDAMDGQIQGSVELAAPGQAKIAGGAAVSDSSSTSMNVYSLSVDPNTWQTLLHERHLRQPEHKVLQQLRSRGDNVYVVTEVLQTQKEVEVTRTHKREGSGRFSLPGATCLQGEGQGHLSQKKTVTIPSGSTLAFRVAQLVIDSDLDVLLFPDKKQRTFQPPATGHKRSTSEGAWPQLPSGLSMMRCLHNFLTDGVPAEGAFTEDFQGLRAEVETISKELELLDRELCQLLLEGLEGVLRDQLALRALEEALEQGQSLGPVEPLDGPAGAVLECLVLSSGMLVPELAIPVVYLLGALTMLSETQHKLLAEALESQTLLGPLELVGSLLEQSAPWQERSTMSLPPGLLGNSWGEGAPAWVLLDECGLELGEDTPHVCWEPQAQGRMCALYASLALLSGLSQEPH
# [2] = biological target: T2, cysteines in MDA-MB-231 and Ramos cells (Homo sapiens, UniProt P11216); experiment: as above; format: cell-based; conditions: 200 μM, insitu, 231
# T2 sequence (P11216 1-843): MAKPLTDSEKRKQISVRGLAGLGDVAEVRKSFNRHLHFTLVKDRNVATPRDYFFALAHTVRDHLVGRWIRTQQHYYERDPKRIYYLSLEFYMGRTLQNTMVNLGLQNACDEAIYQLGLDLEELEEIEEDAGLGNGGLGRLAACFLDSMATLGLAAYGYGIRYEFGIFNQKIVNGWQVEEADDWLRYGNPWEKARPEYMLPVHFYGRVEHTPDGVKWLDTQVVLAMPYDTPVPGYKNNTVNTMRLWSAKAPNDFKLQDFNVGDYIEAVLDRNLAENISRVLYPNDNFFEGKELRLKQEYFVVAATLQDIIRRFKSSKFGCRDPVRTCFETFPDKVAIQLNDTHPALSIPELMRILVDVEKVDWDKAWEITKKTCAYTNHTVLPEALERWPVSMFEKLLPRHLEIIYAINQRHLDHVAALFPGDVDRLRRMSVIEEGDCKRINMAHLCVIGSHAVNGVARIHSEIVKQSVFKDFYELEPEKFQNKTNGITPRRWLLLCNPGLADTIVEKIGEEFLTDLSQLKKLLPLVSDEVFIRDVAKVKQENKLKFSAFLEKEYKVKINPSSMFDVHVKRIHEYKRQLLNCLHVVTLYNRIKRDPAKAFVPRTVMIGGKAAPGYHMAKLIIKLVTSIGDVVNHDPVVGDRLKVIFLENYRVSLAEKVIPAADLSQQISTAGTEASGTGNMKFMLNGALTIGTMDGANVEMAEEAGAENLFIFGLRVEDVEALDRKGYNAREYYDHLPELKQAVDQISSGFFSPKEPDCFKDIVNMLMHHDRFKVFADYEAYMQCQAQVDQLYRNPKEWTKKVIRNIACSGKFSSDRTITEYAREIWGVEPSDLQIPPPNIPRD
# [3] = biological target: T3, cysteines in MDA-MB-231 and Ramos cells (Homo sapiens, UniProt Q9HCC0); experiment: as above; format: cell-based; conditions: 200 μM, insitu, 231
# T3 sequence (Q9HCC0 23-563): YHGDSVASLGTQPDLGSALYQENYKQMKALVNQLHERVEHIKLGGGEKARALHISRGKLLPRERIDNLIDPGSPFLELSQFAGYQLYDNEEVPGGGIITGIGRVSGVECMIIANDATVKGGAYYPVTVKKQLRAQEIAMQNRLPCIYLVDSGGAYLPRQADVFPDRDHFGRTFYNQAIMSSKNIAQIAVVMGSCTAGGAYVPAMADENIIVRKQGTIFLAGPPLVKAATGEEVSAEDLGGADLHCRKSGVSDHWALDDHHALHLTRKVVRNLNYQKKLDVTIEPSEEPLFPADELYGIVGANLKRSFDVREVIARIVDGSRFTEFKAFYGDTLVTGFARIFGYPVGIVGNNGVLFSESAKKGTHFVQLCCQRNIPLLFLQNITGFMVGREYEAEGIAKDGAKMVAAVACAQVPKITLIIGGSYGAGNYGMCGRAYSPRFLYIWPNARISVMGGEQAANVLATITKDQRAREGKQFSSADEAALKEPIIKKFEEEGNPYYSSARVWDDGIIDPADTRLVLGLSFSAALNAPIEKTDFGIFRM
# ERCC3 C342 (P19447) = biological target: T4, ERCC3 C342 (P19447) (Homo sapiens, UniProt P19447); experiment: Competitive isoTOP-ABPP, cell lysates; format: binding; conditions: for isoTOP-ABPP reactivity ratio, P19447_C342 / isoTOP-ABPP reactivity profile ratio, P19447_C342: 500 μm, in-vitro_ramos_231
# T4 sequence (P19447 1-782): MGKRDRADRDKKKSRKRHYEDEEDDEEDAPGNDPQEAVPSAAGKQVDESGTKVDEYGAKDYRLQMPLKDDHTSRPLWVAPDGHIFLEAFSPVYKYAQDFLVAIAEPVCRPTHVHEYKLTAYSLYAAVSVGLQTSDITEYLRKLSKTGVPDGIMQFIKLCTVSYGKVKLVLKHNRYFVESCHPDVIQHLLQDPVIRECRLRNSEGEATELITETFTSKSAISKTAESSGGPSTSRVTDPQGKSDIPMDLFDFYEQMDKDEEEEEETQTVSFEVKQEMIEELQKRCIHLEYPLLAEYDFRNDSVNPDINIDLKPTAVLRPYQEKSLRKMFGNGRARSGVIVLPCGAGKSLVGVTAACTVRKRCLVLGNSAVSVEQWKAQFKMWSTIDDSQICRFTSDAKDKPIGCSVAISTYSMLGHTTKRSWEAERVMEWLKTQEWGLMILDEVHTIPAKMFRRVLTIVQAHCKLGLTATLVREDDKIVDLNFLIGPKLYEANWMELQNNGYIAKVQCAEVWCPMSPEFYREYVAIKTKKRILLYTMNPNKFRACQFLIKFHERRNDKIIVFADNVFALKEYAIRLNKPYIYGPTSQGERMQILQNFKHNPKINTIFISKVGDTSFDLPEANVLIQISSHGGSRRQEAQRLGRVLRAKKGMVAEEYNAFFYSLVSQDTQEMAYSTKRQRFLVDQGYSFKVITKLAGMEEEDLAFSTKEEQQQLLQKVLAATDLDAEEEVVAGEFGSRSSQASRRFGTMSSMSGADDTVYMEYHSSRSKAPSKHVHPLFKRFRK
Structure (SMILES),isoTOP-ABPP ratio P57764_C268 [1]; 231,isoTOP-ABPP ratio P11216_C326 [2],"isoTOP-ABPP ratio (reactivity profile), P19447_C342 (ERCC3 C342 (P19447); 500 μm in-vitro ramos_231)",isoTOP-ABPP ratio Q9HCC0_C216 [3],other results
O=C(CCl)NC12CC3CC(CC(C3)C1)C2 [compound 21],0.7,0.9,6.1,2.2,
N#C/C(=C\c1cc(C(F)(F)F)cc(C(F)(F)F)c1)C(N)=O [compound 23],,,1.6,,
CC(Cl)C(=O)Nc1cc(C(F)(F)F)cc(C(F)(F)F)c1 (stereo not shown) [compound 25],,,0.9,,
CC(C)CCOCCNC(=O)CCl [compound 27],0.6,0.7,0.8 and 1.1,1.0,
CCN(CC)c1ccc(S(N)(=O)=O)cc1NC(=O)CCl [compound 30],,,,,"isoTOP-ABPP ratio (reactivity profile), P19447_C342 (ERCC3 C342 (P19447); 500 μm in-vitro ramos): 1.3"
C=CC(=O)N(Cc1cccnc1)c1cc(C(F)(F)F)cc(C(F)(F)F)c1 [compound 31],,0.5,,,isoTOP-ABPP ratio P57764_C268 ([1]; ramos): 3.1
C=CC(=O)Nc1cc(F)c(N2CCN(C(=O)OC(C)(C)C)CC2)c(F)c1 [compound 38],1.8,1.2,,,"isoTOP-ABPP reactivity ratio, P19447_C342 (ERCC3 C342 (P19447)): 1.3"
C=CC(=O)N(c1ccccc1)C1CCCCC1 [compound 46],,,,,"isoTOP-ABPP reactivity profile ratio, P19447_C342 (ERCC3 C342 (P19447)): 1.0"
O=C(CCl)Nc1ccc(-c2ccccc2)cc1 [compound 52],,,,,"isoTOP-ABPP reactivity profile ratio, P19447_C342 (ERCC3 C342 (P19447)): 1.0"

# The next lines start with results.
isoTOP-ABPP ratio P57764_C268 [1]; 231,isoTOP-ABPP ratio P11216_C326 [2],"isoTOP-ABPP ratio (reactivity profile), P19447_C342 (ERCC3 C342 (P19447); 500 μm in-vitro ramos_231)",Structure (SMILES),isoTOP-ABPP ratio Q9HCC0_C216 [3],other results
,,0.8,O=C(CCl)N1CCN(CC(=O)N2CCOCC2)CC1 [compound 29],,isoTOP-ABPP ratio P57764_C268 ([1]; ramos): 1.1
0.6,0.7,,Cc1ccc(C=C(C#N)C(=O)NCCN2CCOCC2)cc1 [compound 41],1.0,"isoTOP-ABPP reactivity ratio, P19447_C342 (ERCC3 C342 (P19447)): 1.1"
20.0,5.3,,CC1CCc2ccccc2N1C(=O)CCl (stereo not shown) [compound 45],7.0,
1.8,0.8,,O=C(CCl)Nc1cccc2ncccc12 [compound 51],0.9,"isoTOP-ABPP reactivity profile ratio, P19447_C342 (ERCC3 C342 (P19447)): 1.4"
